What follows are molecules tested against human SGLT2 (Homo sapiens (Human), UniProt P31639) (assay: Inhibitory effects on human SGLT2 activities (14C-AMG uptake, sodium-dependent glucose transport assay)). Conditions: CHO cells stably expressing hSGLT2, 37° C., 2 h, single determinations.
Type: cell-based
Outline: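 CHO cells stably expressing hSGLT2 were preincubated 10 min at 37 °C in choline (Na+-free) buffer, then exposed 2 h at 37 °C to compound in Na+ uptake buffer with 8 μM 14C-AMG and 1 mM unlabeled AMG. Radioactivity was scintillation counted; IC50 came from nonlinear regression.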

Sequence of human SGLT2 (P31639 whole entry): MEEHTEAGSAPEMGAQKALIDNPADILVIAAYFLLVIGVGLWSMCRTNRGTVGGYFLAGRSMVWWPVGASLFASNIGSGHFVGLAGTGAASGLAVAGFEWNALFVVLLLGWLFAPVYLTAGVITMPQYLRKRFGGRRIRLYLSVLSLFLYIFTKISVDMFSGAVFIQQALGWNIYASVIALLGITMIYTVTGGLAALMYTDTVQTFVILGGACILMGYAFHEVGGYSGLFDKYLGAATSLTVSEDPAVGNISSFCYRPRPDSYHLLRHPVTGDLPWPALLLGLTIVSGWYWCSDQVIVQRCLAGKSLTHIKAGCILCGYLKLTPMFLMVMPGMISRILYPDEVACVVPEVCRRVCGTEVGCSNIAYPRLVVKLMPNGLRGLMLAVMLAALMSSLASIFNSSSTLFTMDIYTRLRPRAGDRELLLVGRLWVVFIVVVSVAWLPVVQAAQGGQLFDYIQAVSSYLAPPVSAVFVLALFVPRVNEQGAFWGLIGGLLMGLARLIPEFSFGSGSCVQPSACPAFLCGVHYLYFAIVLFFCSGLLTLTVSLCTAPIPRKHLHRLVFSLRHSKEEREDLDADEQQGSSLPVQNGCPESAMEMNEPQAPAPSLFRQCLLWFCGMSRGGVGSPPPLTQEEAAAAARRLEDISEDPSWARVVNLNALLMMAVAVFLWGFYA

Row | SMILES | IC50 [nM]
1 | OC[C@H]1O[C@@H](c2cc(Cc3ccc4c(c3)OCCO4)c(Cl)c3c2OCCO3)[C@H](O)[C@@H](O)[C@@H]1O [Example E103, (2S,3R,4R,5S,6R)-2-(8-Chloro-7-((2,3-dihydrobenzo[b][1,4]dioxin-6-yl)methyl)-2,3-dihydrobenzo[b][1,4]dioxin-5-yl)-6-(hydroxymethyl)tetrahydro-2H-pyran-3,4,5-triol] | 1.82
2 | COc1ccc(Cc2cc([C@@H]3O[C@H](CO)[C@@H](O)[C@H](O)[C@H]3O)c3c(c2Cl)OCCO3)cc1 [Example E104, (2S,3R,4R,5S,6R)-2-(8-Chloro-7-(4-methoxybenzyl)-2,3-dihydrobenzo[b][1,4]dioxin-5-yl)-6-(hydroxymethyl)tetrahydro-2H-pyran-3,4,5-triol] | 2
3 | CCc1ccc(Cc2cc([C@@H]3O[C@H](CO)[C@@H](O)[C@H](O)[C@H]3O)c3c(c2Cl)OCCO3)cc1 [Example E105, (2S,3R,4R,5S,6R)-2-(8-Chloro-7-(4-ethylbenzyl)-2,3-dihydrobenzo[b][1,4]dioxin-5-yl)-6-(hydroxymethyl)tetrahydro-2H-pyran-3,4,5-triol] | 0.923
4 | OC[C@H]1O[C@@H](c2cc(Cc3ccc4c(c3)OCCO4)c(Cl)c3c2CCC3)[C@H](O)[C@@H](O)[C@@H]1O [Example E106, (2S,3R,4R,5S,6R)-2-(7-Chloro-6-((2,3-dihydrobenzo[b][1,4]dioxin-6-yl)methyl)-2,3-dihydro-1H-inden-4-yl)-6-(hydroxymethyl)tetrahydro-2H-pyran-3,4,5-triol] | 0.616
5 | Cc1c(Cc2ccc3c(c2)OCCO3)cc([C@@H]2O[C@H](CO)[C@@H](O)[C@H](O)[C@H]2O)c2c1CCC2 [Example E107, (2S,3R,4R,5S,6R)-2-(6-((2,3-Dihydrobenzo[b][1,4]dioxin-6-yl)methyl)-7-methyl-2,3-dihydro-1H-inden-4-yl)-6-(hydroxymethyl)tetrahydro-2H-pyran-3,4,5-triol] | 0.86
6 | OC[C@H]1O[C@@H](c2cc(Cc3ccc4c(c3)OCCO4)c(C(F)F)c3c2CCC3)[C@H](O)[C@@H](O)[C@@H]1O [Example E108, (2S,3R,4R,5S,6R)-2-(7-(Difluoromethyl)-6-((2,3-dihydrobenzo[b][1,4]dioxin-6-yl)methyl)-2,3-dihydro-1H-inden-4-yl)-6-(hydroxymethyl)tetrahydro-2H-pyran-3,4,5-triol] | 1.26
7 | CCOc1ccc(Cc2cc([C@@H]3O[C@H](OC)[C@@H](O)[C@H](O)[C@H]3O)c(OC)cc2Cl)cc1 [Example E109, (2S,3R,4R,5S,6S)-2-(4-Chloro-5-(4-ethoxybenzyl)-2-methoxyphenyl)-6-methoxytetrahydro-2H-pyran-3,4,5-triol] | 29.1
8 | C=CCOc1cc(Cl)c(Cc2ccc(OC)cc2)cc1[C@@H]1O[C@H](SC)[C@@H](O)[C@H](O)[C@H]1O [Example E110, (2S,3R,4R,5S,6R)-2-(2-(Allyloxy)-4-chloro-5-(4-methoxybenzyl)phenyl)-6-(methylthio)tetrahydro-2H-pyran-3,4,5-triol] | 0.504
9 | CCOc1ccc(Cc2cc([C@@H]3O[C@H](SC)[C@@H](O)[C@H](O)[C@H]3O)c(OC)cc2Cl)cc1 [Example E111, (2S,3R,4R,5S,6R)-2-(4-Chloro-5-(4-ethoxybenzyl)-2-methoxyphenyl)-6-(methylthio)tetrahydro-2H-pyran-3,4,5-triol] | 0.783
10 | CCOc1ccc(Cc2cc([C@@H]3O[C@H](S(C)(=O)=O)[C@@H](O)[C@H](O)[C@H]3O)c(OC)cc2Cl)cc1 [Example E112, (2S,3R,4R,5S,6R)-2-(4-Chloro-5-(4-ethoxybenzyl)-2-methoxyphenyl)-6-(methylsulfonyl)tetrahydro-2H-pyran-3,4,5-triol] | 7.44
11 | COc1cc([C@@H]2O[C@H](SC)[C@@H](O)[C@H](O)[C@H]2O)cc(Cc2ccc3c(c2)OCCO3)c1Cl [Example E113, (2S,3R,4R,5S,6R)-2-(4-Chloro-3-((2,3-dihydrobenzo[b][1,4]dioxin-6-yl)methyl)-5-methoxyphenyl)-6-(methylthio)tetrahydro-2H-pyran-3,4,5-triol] | 0.551
12 | CCOc1ccc(Cc2cc([C@@H]3O[C@H](SC)[C@@H](O)[C@H](O)[C@H]3O)cc(OC)c2Cl)cc1 [Example E114, (2S,3R,4R,5S,6R)-2-(4-Chloro-3-(4-ethoxybenzyl)-5-methoxyphenyl)-6-(methylthio)tetrahydro-2H-pyran-3,4,5-triol] | 0.308
13 | C=CCOc1cc(Cl)c(Cc2ccc(OC)cc2)cc1[C@@H]1O[C@H](OC)[C@@H](O)[C@H](O)[C@H]1O [Example E115, (2S,3R,4R,5S,6S)-2-(2-(Allyloxy)-4-chloro-5-(4-methoxybenzyl)phenyl)-6-methoxytetrahydro-2H-pyran-3,4,5-triol] | 7.06
14 | CN(C)c1ccc(Cc2cc([C@@H]3O[C@H](CO)[C@@H](O)[C@H](O)[C@H]3O)c3c(c2Cl)CCC3)cc1 [Example E116, (2S,3R,4R,5S,6R)-2-(7-Chloro-6-(4-(dimethylamino)benzyl)-2,3-dihydro-1H-inden-4-yl)-6-(hydroxymethyl)tetrahydro-2H-pyran-3,4,5-triol] | 0.475
15 | C=Cc1ccc(Cc2cc([C@@H]3O[C@H](CO)[C@@H](O)[C@H](O)[C@H]3O)c3c(c2Cl)CCC3)cc1 [Example E117, (2S,3R,4R,5S,6R)-2-(7-Chloro-6-(4-vinylbenzyl)-2,3-dihydro-1H-inden-4-yl)-6-(hydroxymethyl)tetrahydro-2H-pyran-3,4,5-triol] | 0.742
16 | OC[C@H]1O[C@@H](c2cc(Cc3ccc(C4CC4)cc3)c(Cl)c3c2CCC3)[C@H](O)[C@@H](O)[C@@H]1O [Example E118, (2S,3R,4R,5S,6R)-2-(7-Chloro-6-(4-cyclopropylbenzyl)-2,3-dihydro-1H-inden-4-yl)-6-(hydroxymethyl)tetrahydro-2H-pyran-3,4,5-triol] | 0.678
17 | C=Cc1ccc(Cc2cc([C@@H]3O[C@H](CO)[C@@H](O)[C@H](O)[C@H]3O)c3c(c2Cl)CCO3)cc1 [Example E119, (2S,3R,4R,5S,6R)-2-(4-Chloro-5-(4-vinylbenzyl)-2,3-dihydrobenzofuran-7-yl)-6-(hydroxymethyl)tetrahydro-2H-pyran-3,4,5-triol] | 1.38
18 | OC[C@H]1O[C@@H](c2cc(Cc3ccc(C4CC4)cc3)c(Cl)c3c2OCC3)[C@H](O)[C@@H](O)[C@@H]1O [Example E120, (2S,3R,4R,5S,6R)-2-(4-Chloro-5-(4-cyclopropylbenzyl)-2,3-dihydrobenzofuran-7-yl)-6-(hydroxymethyl)tetrahydro-2H-pyran-3,4,5-triol] | 1.09
19 | OC[C@H]1O[C@@H](c2cc(Cc3ccc(C4CC4)cc3)c(Cl)c3c2OCCC3)[C@H](O)[C@@H](O)[C@@H]1O [Example E121, (2S,3R,4R,5S,6R)-2-(5-Chloro-6-(4-cyclopropylbenzyl)chroman-8-yl)-6-(hydroxymethyl)tetrahydro-2H-pyran-3,4,5-triol] | 0.851
20 | OC[C@H]1O[C@@H](c2cc(Cc3ccc(C(F)(F)F)cc3)c(Cl)c3c2OCC3)[C@H](O)[C@@H](O)[C@@H]1O [Example E122, (2S,3R,4R,5S,6R)-2-(4-Chloro-5-(4-(trifluoromethyl)benzyl)-2,3-dihydrobenzofuran-7-yl)-6-(hydroxymethyl)tetrahydro-2H-pyran-3,4,5-triol] | 1.97
21 | OC[C@H]1O[C@@H](c2cc(Cc3ccc(Cl)cc3)c(Cl)c3c2OCC3)[C@H](O)[C@@H](O)[C@@H]1O [Example E123, (2S,3R,4R,5S,6R)-2-(4-Chloro-5-(4-chlorobenzyl)-2,3-dihydrobenzofuran-7-yl)-6-(hydroxymethyl)tetrahydro-2H-pyran-3,4,5-triol] | 1.82
22 | OC[C@H]1O[C@@H](c2cc(Cc3ccc(C(F)(F)F)cc3)c(Cl)c3c2CCO3)[C@H](O)[C@@H](O)[C@@H]1O [Example E124, (2S,3R,4R,5S,6R)-2-(7-Chloro-6-(4-(trifluoromethyl)benzyl)-2,3-dihydrobenzofuran-4-yl)-6-(hydroxymethyl)tetrahydro-2H-pyran-3,4,5-triol] | 1.25
23 | CCOc1ccc(Cc2cc([C@@H]3O[C@H](C)[C@@H](O)[C@H](O)[C@H]3O)c3c(c2Cl)OCC3)cc1 [Example E125, (2S,3R,4S,5S,6R)-2-(7-Chloro-6-(4-ethoxybenzyl)-2,3-dihydrobenzofuran-4-yl)-6-methyltetrahydro-2H-pyran-3,4,5-triol] | 0.728
24 | CCOc1ccc(Cc2cc([C@@H]3O[C@H](CF)[C@@H](O)[C@H](O)[C@H]3O)c3c(c2Cl)OCC3)cc1 [Example E126, (2S,3R,4R,5S,6S)-2-(7-Chloro-6-(4-ethoxybenzyl)-2,3-dihydrobenzofuran-4-yl)-6-(fluoromethyl)tetrahydro-2H-pyran-3,4,5-triol] | 3.21
25 | CCOc1ccc(Cc2cc([C@@H]3O[C@H](C(C)O)[C@@H](O)[C@H](O)[C@H]3O)c3c(c2Cl)OCC3)cc1 (stereo partly drawn) [Example E127, (2S,3R,4R,5S,6R)-2-(7-Chloro-6-(4-ethoxybenzyl)-2,3-dihydrobenzofuran-4-yl)-6-(1-hydroxyethyl)tetrahydro-2H-pyran-3,4,5-triol] | 1.35
26 | CCOc1ccc(Cc2cc([C@@H]3O[C@H](CO)[C@@H](O)[C@H](O)[C@H]3O)c3c(c2C)OCC3)cc1 [Example E129, (2S,3R,4R,5S,6R)-2-(6-(4-Ethoxybenzyl)-7-methyl-2,3-dihydrobenzofuran-4-yl)-6-(hydroxymethyl)tetrahydro-2H-pyran-3,4,5-triol] | 1.28
27 | COc1ccc(Cc2cc([C@@H]3O[C@H](CO)[C@@H](O)[C@H](O)[C@H]3O)c3c(c2Cl)OC(C)C3)cc1 (stereo partly drawn) [Example E130, (2S,3R,4R,5S,6R)-2-(7-Chloro-6-(4-methoxybenzyl)-2-methyl-2,3-dihydrobenzofuran-4-yl)-6-(hydroxymethyl)tetrahydro-2H-pyran-3,4,5-triol] | 1.78
28 | COc1ccc(Cc2cc([C@@H]3O[C@H](CO)[C@@H](O)[C@H](O)[C@H]3O)c3c(c2Cl)CC(C)O3)cc1 (stereo partly drawn) [Example E131, (2S,3R,4R,5S,6R)-2-(4-Chloro-5-(4-methoxybenzyl)-2-methyl-2,3-dihydrobenzofuran-7-yl)-6-(hydroxymethyl)tetrahydro-2H-pyran-3,4,5-triol] | 1.02
